Test results published in the NIST ThermoML archive (doi:10.1016/j.tca.2004.07.014).

Key:
[1] = 303.15 K, 101.3 kPa, Liquid; for viscosity: Capillary tube (Ostwald / Ubbelohde) method; for speed of sound: Linear variable-path acoustic interferometer
[2] = xn = mol fraction of the nth substance listed; conditions: 303.15 K, 101.3 kPa, Liquid; for speed of sound: Linear variable-path acoustic interferometer

CCOC(=O)CC(=O)OCC [diethyl 1,3-propanedioate]
[1]
Conditions | mass density [kg/m3] | speed of sound [m/s] | viscosity [mPa·s]
– | 1043.23 | 1274 | 1.721

CCOC(=O)CC(=O)OCC [diethyl 1,3-propanedioate] + ClC(Cl)(Cl)Cl
[2]
Conditions | mass density [kg/m3] | speed of sound [m/s] | viscosity [mPa·s]
x1 = 0.1173 | 1480.36 | 949 | 0.857
x1 = 0.2031 | 1419.02 | 982 | 0.877
x1 = 0.2999 | 1356.61 | 1018 | 0.918
x1 = 0.4623 | 1265.6 | 1080 | 1.002
x1 = 0.5648 | 1215.59 | 1120 | 1.084
x1 = 0.6579 | 1174.08 | 1154 | 1.167
x1 = 0.7478 | 1136.91 | 1185 | 1.272
x1 = 0.8311 | 1104.69 | 1216 | 1.388
x1 = 0.9189 | 1072.19 | 1247 | 1.544
x1 = 1 | 1043.23 | 1274 | 1.721

CCOC(=O)CC(=O)OCC [diethyl 1,3-propanedioate] + ClC(Cl)Cl
[2]
Conditions | mass density [kg/m3] | speed of sound [m/s] | viscosity [mPa·s]
x1 = 0.0968 | 1399.36 | 999 | 0.533
x1 = 0.2004 | 1334.53 | 1031 | 0.568
x1 = 0.3089 | 1276.4 | 1065 | 0.622
x1 = 0.4122 | 1228.62 | 1097 | 0.692
x1 = 0.5385 | 1178.25 | 1136 | 0.808
x1 = 0.6125 | 1151.99 | 1159 | 0.891
x1 = 0.7225 | 1116.7 | 1192 | 1.05
x1 = 0.8156 | 1089.85 | 1220 | 1.226
x1 = 0.9071 | 1065.78 | 1246 | 1.444

CCOC(=O)C(Br)C(=O)OCC [diethyl bromomalonate]
[1]
Conditions | mass density [kg/m3] | speed of sound [m/s] | viscosity [mPa·s]
– | 1399.18 | 1166 | 3.614

CCOC(=O)C(Br)C(=O)OCC [diethyl bromomalonate] + ClC(Cl)(Cl)Cl
[2]
Conditions | mass density [kg/m3] | speed of sound [m/s] | viscosity [mPa·s]
x1 = 0.1001 | 1552.35 | 944 | 1.012
x1 = 0.1992 | 1531.61 | 980 | 1.207
x1 = 0.3007 | 1512.21 | 1012 | 1.433
x1 = 0.4088 | 1492.99 | 1047 | 1.705
x1 = 0.4988 | 1478.09 | 1072 | 1.948
x1 = 0.5999 | 1462.1 | 1098 | 2.255
x1 = 0.699 | 1446.77 | 1121 | 2.571
x1 = 0.8988 | 1415.72 | 1155 | 3.25
x1 = 1 | 1399.18 | 1166 | 3.614
